From patent US20150164968A1, “Method of Producing Banana-Derived Composition and Biologically Active Substance Containing Same” (priority 2013, published 2015)

Experiment: Action of antioxidation, OXY Adsorbent Test (FREE)
Settings: solution at 10 mg/ml in ultrapure water
Protocol: The banana-derived composition 4 (the secondary refined product) as the biologically active substance and vitamin C were dissolved in ultrapure water to prepare solutions each at a concentration of 10 mg/ml. An antioxidation ability was measured twice for each of the prepared solutions. In detail, the antioxidation ability against oxidation through hypochlorous acid (HClO) was measured by means of Free Radical Elective Evaluator (FREE) manufactured by […] Co., Ltd. Oxygen (OXY) Adsorbent Test was applied to the measurement. As a result of the measurement, a concentration of HClO neutralized is obtained in the unit of μmol HClO/mL. A higher concentration value means a better HClO neutralization ability, that is to say, a stronger antioxidative action.

## O=C1O[C@H]([C@@H](O)CO)C(O)=C1O [Vitamin C, vitamin C]
  concentration of HClO neutralized, 1st measurement: 71.7 μmol HClO/mL
  concentration of HClO neutralized, 2nd measurement: 79.7 μmol HClO/mL
Average of two measurements
  concentration of HClO neutralized, Average: 75.7 μmol HClO/mL
